Source: the supplement of paper PMC10307832

Assays:
Assay in all cases: relative viability (nuclei count vs DMSO), 5 days (fraction); higher = more cells survive
Shikonin + AZD7762 = compound: CC(C)=CC[C@@H](O)C1=CC(=O)c2c(O)ccc(O)c2C1=O [Shikonin] + NC(=O)Nc1cc(-c2cccc(F)c2)sc1C(=O)N[C@H]1CCCNC1 [AZD7762] (partner 0.2 µM)
Outline: (§1)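 The day after seeding in 1536-well plates, lung cancer cell lines were treated by pin tool with a single drug, or with a fixed anchor-drug dose together with five library-drug doses (not always all listed) in √10 steps. After 5 days, a combined fix-and-stain solution (final 0.05% Triton X-100, 1% formaldehyde, 1 ug/ml Hoechst) was added. Nuclei counted on 4× images gave relative viability as treated counts over vehicle counts, reported as the median of duplicate plates.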

Shikonin + Tozasertib = compound: CC(C)=CC[C@@H](O)C1=CC(=O)c2c(O)ccc(O)c2C1=O [Shikonin] + Cc1cc(Nc2cc(N3CCN(C)CC3)nc(Sc3ccc(NC(=O)C4CC4)cc3)n2)n[nH]1 [Tozasertib] (partner 0.1 µM)
Outline: as §1

Shikonin + Pemetrexed = compound: CC(C)=CC[C@@H](O)C1=CC(=O)c2c(O)ccc(O)c2C1=O [Shikonin] + Nc1nc2[nH]cc(CCc3ccc(C(=O)N[C@@H](CCC(=O)O)C(=O)O)cc3)c2c(=O)[nH]1 [Pemetrexed] (partner 0.2 µM)
Outline: as §1

[1] = compound: CC(C)N(CCCNC(=O)Nc1ccc(C(C)(C)C)cc1)C[C@H]1O[C@@H](n2ccc3c(N)ncnc32)[C@H](O)[C@@H]1O + N=C(N)NC(=N)NCCc1ccccc1 [Phenformin] (partner 250 µM)
Outline: as §1

| Cell Line | relative viability (Shikonin + AZD7762; first compound 0.01 µM) | relative viability (Shikonin + AZD7762; first compound 0.1 µM) | relative viability (Shikonin + AZD7762; first compound 0.3162 µM) | relative viability (Shikonin + AZD7762; first compound 1 µM) | relative viability (Shikonin + Tozasertib; first compound 0.01 µM) | relative viability (Shikonin + Tozasertib; first compound 0.1 µM) | relative viability (Shikonin + Tozasertib; first compound 0.3162 µM) | relative viability (Shikonin + Tozasertib; first compound 1 µM) | relative viability (Shikonin + Pemetrexed; first compound 0.01 µM) | relative viability (Shikonin + Pemetrexed; first compound 0.1 µM) | relative viability (Shikonin + Pemetrexed; first compound 0.3162 µM) | relative viability (Shikonin + Pemetrexed; first compound 1 µM) | relative viability ([1]; first compound 0.08 µM) | relative viability ([1]; first compound 0.253 µM) | relative viability ([1]; first compound 0.8 µM) | relative viability ([1]; first compound 2.53 µM) | relative viability ([1]; first compound 8 µM) |
| --- | --- | --- | --- | --- | --- | --- | --- | --- | --- | --- | --- | --- | --- | --- | --- | --- | --- |
| LC-2-ad | 0.756 | 0.919 | 0.863 | 0.949 | 0.486 | 0.392 | 0.485 | 0.435 | 0.297 | 0.273 | 0.269 | 0.282 | 0.587 | 0.546 | 0.526 | 0.6 | 0.565 |
| LCLC-97TM1 | 0.286 | 0.188 | 0.227 | 0.362 | 0.254 | 0.21 | 0.222 | 0.17 | 0.123 | 0.162 | 0.155 | 0.16 | 0.424 | 0.487 | 0.548 | 0.373 | 0.43 |
| LCLC-103H | 0.796 | 0.889 | 0.815 | 0.954 | 0.452 | 0.498 | 0.52 | 0.516 | 0.436 | 0.49 | 0.46 | 0.477 | 0.326 | 0.342 | 0.304 | 0.261 | 0.304 |
| LK-2 | 0.368 | 0.428 | 0.424 | 0.231 | 0.178 | 0.154 | 0.165 | 0.154 | 0.311 | 0.3 | 0.306 | 0.266 | 0.433 | 0.326 | 0.433 | 0.562 | 0.411 |
| LOU-NH91 | 0.839 | 0.864 | 0.816 | 0.84 | 0.685 | 0.711 | 0.613 | 0.683 | 0.367 | 0.381 | 0.381 | 0.458 | 0.685 | 0.712 | 0.441 | 0.65 | 0.671 |
| LU99A | 0.381 | 0.334 | 0.687 | 0.323 | 0.248 | 0.281 | 0.298 | 0.234 | 0.174 | 0.206 | 0.191 | 0.199 | 0.793 | 0.679 | 0.979 | 0.85 | 0.787 |
| LXF-289 | 1.13 | 1.15 | 1.14 | 1.18 | 0.212 | 0.183 | 0.209 | 0.196 | 0.892 | 0.959 | 0.955 | 0.945 | 0.518 | 0.556 | 0.541 | 0.539 | 0.478 |
| NCI-H23 | 0.223 | 0.27 | 0.268 | 0.231 | 0.363 | 0.335 | 0.658 | 0.413 | 0.662 | 0.832 | 0.704 | 0.766 | 0.771 | 0.806 | 0.791 | 0.843 | 0.746 |
| NCI-H322M | 0.59 | 0.568 | 0.451 | 0.572 | 0.486 | 0.467 | 0.478 | 0.381 | 0.575 | 0.591 | 0.6 | 0.777 | 0.795 | 0.711 | 0.75 | 0.749 | 0.762 |
| NCI-H520 | – | – | – | – | 0.49 | 0.436 | 0.475 | 0.433 | 0.801 | 0.784 | 0.689 | 0.604 | 0.606 | 0.342 | 0.353 | 0.655 | 0.618 |
